US10329304B2, “Compounds and methods for inhibition of hedgehog signaling and phosphodiesterase” (Vanderbilt University, priority 2014, dated 2019)
Several values for one entry are separate records, joined by “and”; a condition that tells them apart may be missing. Identical values can stand only once. Entries after “also recorded” stand apart in the source; their conditions may differ.

Tests used:
mouse cardiomyocytes [1] = test: Calcium handling in isolated mouse cardiomyocytes; format: cell-based; details: 10 μM
Description: (§1) To observe whether the effects of eggmanone administration are cardiomyocyte specific or due to off target effects, the contractility of individual mouse cardiomyocytes and the tone of ascending/descending aorta was observed. In mouse cardiomyocytes, Egm caused a 50% increase in contractility over vehicle control (FIG. 32).

Daoy cells = test: Daoy cell proliferation (PH3 staining) and apoptosis (TUNEL); format: cell-based, human; details: 10 μM, 48-hours
mouse cardiomyocytes [2] = test: Contractility of isolated mouse cardiomyocytes; format: cell-based
Description: as §1

mouse aorta = test: Myography of cannulated mouse aorta; details: listed as Egm
Description: For myography, to test the vascular tone for presense of downstream or off target effects, mouse aorta was mounted and cannulated on a closed system. A physiological buffer (with respect to pH, CO2, and temperature) was circulated through the vessel.

ptch1 expression = test: RT-PCR of ptch1 in NIH3T3 cells stimulated with purmorphamine; format: cell-based; details: NIH3T3 fibroblasts
Protocol: NIH3T3 cells were stimulated with 3 μM purmorphamine in the presence of eggmanone or DMSO for 24-hours. Cells were collected and RNA isolated with RNeasy kit (Qiagen, Valencia, Calif.). After subsequent cDNA amplification using Superscript III (Invitrogen, Carlsbad, Calif.), samples were quantified by comparing Q-PCR cycle thresholds (Ct) for gene expression normalized to GAPDH. The following TaqMan probe and primer sets (Applied Biosystems) were used: GAPDH (Mm99999915_g1), and Patch1 (Mm01306905_mi).

panel of 442 kinases = test: Kinase profiling assays (DiscoverRx, phage display model); format: binding
Protocol: (§2) Profiling assays were not performed in-house. Compounds were shipped to the following companies for possible target identification: Kinase profiling assays were performed by DiscoverRx (San Diego, Calif.) using a phage display model; GPCR profiling assays were performed by Millipore (St. Louis, Mo.) using in cells expressing Gα15, a promiscuous G protein that enhances GPCR coupling to downstream Ca^2+ signaling pathways; phosphatase profiling assay was performed by Millipore (Dundee, UK).

PDE4 isoforms = test: In vitro PDE dose-response assays (BPS Biosciences); format: biochemical; details: isoforms of PDE4 A-D; read-out: IC50 range over PDE4 isoforms
Protocol: In vitro PDE profiling and dose-response assays were performed by BPS Biosciences (San Diego, Calif.). Kinetic Mechanism of inhibition studies were conducted by Millipore (St. Louis, Mo.). In brief, the PDE assay measures fluorescent polarization of FAM-AMP as FAM-cAMP is converted to FAM-AMP by PDE), the binding agent.
A series of dilutions of the test compound were prepared with 10% DMSO in assay buffer and 5 μl of the dilution was added to a 50 μl reaction so that the final concentration of DMSO is 1% in all of reactions. All of the PDE enzymatic reactions were conducted in duplicate at room temperature for 60 minutes in a 50 μl mixture containing PDE assay buffer (10 mM Tris-HCl, pH7.4, 10 mM MaCl2, 0.05% Tween 20), 100 nM FAM-cAMP, a PDE enzyme and a test compound.
After the enzymatic reaction, 100 μl of a binding solution (1:100 dilution of the binding agent, which contains the nano beads that recognize FAM-AMP, with the binding agent diluent) was added to each reaction and the reaction was performed at room temperature for 60 minutes. Fluorescence intensity was measured at an excitation of 485 nm and an emission of 528 nm using a Tecan Infinite M1000 microplate reader. Assays done by Millipore were conducted similarly with changes noted below: […]

PDE6C = biological target: T1, PDE6C (Homo sapiens, UniProt P51160); test: In vitro PDE assay; format: biochemical
T1 construct: purchased BPS Biosciences (San Diego, Calif.)
Outline: (§3)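 Recombinant human PDE incubated 60 min at room temperature in duplicate with 100 nM FAM-cAMP in 10 mM Tris-HCl pH 7.4, 10 mM MgCl2, 0.05% Tween 20, 1% DMSO. FAM-AMP product captured by bead binding agent for 60 min, then fluorescence read at 485/528 nm.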

PDE7A1 = biological target: T2, PDE7A1 (Homo sapiens, UniProt Q13946); test: In vitro PDE assay; format: biochemical
T2 construct: purchased BPS Biosciences (San Diego, Calif.)
T2 sequence (Q13946 whole entry): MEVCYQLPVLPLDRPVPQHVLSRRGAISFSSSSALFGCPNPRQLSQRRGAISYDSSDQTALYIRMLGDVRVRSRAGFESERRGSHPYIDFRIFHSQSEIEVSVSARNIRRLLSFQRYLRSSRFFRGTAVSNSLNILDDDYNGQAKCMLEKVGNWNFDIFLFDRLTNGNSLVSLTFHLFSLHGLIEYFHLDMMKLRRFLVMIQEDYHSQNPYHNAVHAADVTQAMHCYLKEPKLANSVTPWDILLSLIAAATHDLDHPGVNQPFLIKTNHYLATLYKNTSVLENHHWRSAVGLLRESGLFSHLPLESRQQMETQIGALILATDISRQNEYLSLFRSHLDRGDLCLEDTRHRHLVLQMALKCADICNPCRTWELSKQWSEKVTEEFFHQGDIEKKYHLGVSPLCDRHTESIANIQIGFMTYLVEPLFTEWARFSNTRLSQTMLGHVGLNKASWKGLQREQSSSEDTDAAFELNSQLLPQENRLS
Outline: as §3

PDE8A1 = biological target: T3, PDE8A1 (Homo sapiens, UniProt O60658); test: In vitro PDE assay; format: biochemical
T3 construct: purchased BPS Biosciences (San Diego, Calif.)
T3 sequence (O60658 whole entry): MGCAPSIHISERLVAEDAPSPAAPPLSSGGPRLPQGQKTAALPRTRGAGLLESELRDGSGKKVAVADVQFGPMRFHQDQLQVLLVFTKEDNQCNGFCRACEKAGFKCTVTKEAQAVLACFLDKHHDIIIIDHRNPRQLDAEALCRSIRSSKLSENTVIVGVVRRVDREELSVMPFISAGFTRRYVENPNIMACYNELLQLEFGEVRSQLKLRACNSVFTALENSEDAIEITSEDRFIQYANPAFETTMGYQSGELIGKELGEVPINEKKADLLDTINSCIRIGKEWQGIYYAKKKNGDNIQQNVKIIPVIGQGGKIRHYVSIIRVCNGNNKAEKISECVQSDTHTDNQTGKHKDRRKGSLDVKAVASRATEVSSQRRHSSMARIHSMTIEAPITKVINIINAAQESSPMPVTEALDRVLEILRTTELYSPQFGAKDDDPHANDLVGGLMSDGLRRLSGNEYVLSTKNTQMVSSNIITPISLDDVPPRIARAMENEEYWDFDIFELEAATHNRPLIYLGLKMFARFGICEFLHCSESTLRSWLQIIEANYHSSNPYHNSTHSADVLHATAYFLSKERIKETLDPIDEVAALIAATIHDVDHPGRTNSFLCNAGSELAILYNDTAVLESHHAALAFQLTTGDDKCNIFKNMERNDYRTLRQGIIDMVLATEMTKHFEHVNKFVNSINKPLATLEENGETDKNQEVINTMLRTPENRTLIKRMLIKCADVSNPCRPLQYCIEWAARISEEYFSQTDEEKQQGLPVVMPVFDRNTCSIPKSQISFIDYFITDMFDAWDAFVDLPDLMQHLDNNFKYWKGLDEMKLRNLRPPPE
Outline: as §3

PDE11A4 = biological target: T4, PDE11A4 (Homo sapiens, UniProt Q9HCR9); test: In vitro PDE assay; format: biochemical
T4 construct: purchased BPS Biosciences (San Diego, Calif.)
T4 sequence (Q9HCR9 whole entry): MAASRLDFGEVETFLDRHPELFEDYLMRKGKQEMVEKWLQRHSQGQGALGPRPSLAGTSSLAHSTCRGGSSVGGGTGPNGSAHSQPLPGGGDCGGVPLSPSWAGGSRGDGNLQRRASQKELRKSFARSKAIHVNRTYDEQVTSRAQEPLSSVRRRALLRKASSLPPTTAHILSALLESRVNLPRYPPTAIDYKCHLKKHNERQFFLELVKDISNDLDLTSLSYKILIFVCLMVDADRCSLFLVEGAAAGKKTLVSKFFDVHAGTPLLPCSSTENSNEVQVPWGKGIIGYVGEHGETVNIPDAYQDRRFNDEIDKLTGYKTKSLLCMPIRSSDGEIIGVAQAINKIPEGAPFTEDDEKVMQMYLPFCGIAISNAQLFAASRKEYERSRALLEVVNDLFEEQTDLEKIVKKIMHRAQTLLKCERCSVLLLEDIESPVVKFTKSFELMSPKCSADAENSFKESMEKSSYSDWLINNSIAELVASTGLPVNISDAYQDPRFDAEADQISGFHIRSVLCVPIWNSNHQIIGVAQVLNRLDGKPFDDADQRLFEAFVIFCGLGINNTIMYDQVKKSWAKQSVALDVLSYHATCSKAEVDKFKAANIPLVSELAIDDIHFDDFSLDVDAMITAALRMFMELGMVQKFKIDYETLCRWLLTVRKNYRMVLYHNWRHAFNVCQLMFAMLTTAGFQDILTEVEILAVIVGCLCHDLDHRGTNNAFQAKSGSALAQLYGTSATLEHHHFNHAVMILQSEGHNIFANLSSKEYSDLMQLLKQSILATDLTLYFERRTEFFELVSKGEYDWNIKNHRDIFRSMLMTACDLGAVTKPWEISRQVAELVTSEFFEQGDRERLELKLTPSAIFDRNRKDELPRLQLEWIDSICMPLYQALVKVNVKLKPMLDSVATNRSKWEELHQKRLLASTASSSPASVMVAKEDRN
Outline: as §3

PDE10A2 = biological target: T5, PDE10A2 (Homo sapiens, UniProt Q9Y233); test: In vitro PDE assay; format: biochemical
T5 construct: purchased BPS Biosciences (San Diego, Calif.)
T5 sequence (Q9Y233 267-1055): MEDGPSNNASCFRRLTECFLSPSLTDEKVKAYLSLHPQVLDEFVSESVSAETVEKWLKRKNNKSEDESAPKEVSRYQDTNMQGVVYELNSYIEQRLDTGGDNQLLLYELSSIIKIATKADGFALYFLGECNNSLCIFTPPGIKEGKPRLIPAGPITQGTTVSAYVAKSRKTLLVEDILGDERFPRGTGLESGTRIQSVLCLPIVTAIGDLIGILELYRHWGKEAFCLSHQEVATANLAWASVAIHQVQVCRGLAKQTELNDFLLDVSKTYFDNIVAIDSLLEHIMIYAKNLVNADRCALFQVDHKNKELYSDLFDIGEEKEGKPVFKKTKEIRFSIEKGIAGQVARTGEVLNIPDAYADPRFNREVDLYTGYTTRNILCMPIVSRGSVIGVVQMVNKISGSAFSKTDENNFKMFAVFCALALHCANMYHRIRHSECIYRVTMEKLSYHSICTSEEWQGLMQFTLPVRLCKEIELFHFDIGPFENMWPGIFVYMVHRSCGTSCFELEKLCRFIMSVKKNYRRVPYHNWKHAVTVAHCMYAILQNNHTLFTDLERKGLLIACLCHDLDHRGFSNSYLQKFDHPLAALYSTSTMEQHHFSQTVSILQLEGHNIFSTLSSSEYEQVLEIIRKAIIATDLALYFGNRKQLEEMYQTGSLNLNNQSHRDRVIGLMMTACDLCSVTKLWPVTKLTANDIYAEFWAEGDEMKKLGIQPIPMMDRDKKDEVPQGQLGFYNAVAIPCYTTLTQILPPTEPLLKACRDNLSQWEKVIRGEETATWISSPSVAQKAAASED
Outline: as §3

PDE5A1 = biological target: T6, PDE5A1 (Homo sapiens, UniProt O76074); test: In vitro PDE assay; format: biochemical
T6 construct: purchased BPS Biosciences (San Diego, Calif.)
Outline: as §3

PDE3A = biological target: T7, PDE3A (Homo sapiens, UniProt Q14432); test: In vitro PDE assay; format: biochemical
T7 construct: purchased BPS Biosciences (San Diego, Calif.)
Outline: as §3

PDE9A1 = biological target: T8, PDE9A1 (Homo sapiens, UniProt O76083); test: In vitro PDE assay; format: biochemical
T8 construct: purchased BPS Biosciences (San Diego, Calif.)
T8 sequence (O76083 whole entry): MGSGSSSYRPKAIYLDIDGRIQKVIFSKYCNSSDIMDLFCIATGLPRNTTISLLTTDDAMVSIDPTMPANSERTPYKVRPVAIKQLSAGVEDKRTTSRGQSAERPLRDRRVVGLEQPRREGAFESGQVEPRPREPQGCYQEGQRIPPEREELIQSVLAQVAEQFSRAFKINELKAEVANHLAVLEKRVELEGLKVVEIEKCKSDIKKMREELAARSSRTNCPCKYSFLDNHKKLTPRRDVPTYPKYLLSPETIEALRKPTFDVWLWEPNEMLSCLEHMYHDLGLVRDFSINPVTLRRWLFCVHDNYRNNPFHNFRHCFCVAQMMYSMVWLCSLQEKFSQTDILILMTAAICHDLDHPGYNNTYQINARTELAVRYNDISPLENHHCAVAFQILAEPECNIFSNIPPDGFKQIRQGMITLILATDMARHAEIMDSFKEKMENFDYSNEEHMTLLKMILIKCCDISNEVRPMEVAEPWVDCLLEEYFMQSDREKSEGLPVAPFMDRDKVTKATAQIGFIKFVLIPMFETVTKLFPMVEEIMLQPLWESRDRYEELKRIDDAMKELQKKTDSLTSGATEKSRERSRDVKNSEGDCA
Outline: as §3

Dengue = Dengue viral CPE assay; format: cell-based
Description: The small molecule PDE4 inhibitors of the presently disclosed subject matter are actively anti-viral in viral CPE (cytopathic effect) assays versus RSV (respiratory syncytial virus), Dengue (1 experiment), and BVDV (bovine viral diarrhea virus, surrogate for human hepatitis C virus). Of note, PDE4 inhibitors are now approved for COPD, for which RSV may be an exacerbating factor).

panel of 158 GPCRs = test: Millipore-GPCR Panel (cells expressing Gα15, Ca2+ signaling); format: cell-based
Protocol: as §2

PDE4D3-AKAP450 = PDE4D3-AKAP450 (Homo sapiens, UniProt Q08499); test: PDE4D3 localization and co-immunoprecipitation with AKAP450; format: cell-based; details: 5 μM
[3] = test system: Bovine Viral Diarrhea Virus; test: BVDV CPE assay; format: cell-based
Protocol: Provided in FIG. 37 are the results from BVDV (Bovine Viral Diarrhea Virus, surrogate for Hepatitis C virus) CPE ([…]) testing done. The assay was repeated with […] (a PDE4B and PDE4D inhibitor). Hi913 (our prototypic PDE4 inhibitor) was tested in half-log concentrations ranging from 100 μM to 0.33 μM. As the stock solution of […] was 10 mM, this meant that the final DMSO concentrations for the highest Hi913 concentrations were 1%, 0.33%, and 0.1%. The normal final DMSO concentrations used is 0.1%, so additional DMSO controls of 1% and 0.33% were included. The Hi913 data for the highest 3 concentrations is normalized to the respective DMSO concentrations. […] The outlier effects at 100 μM are probably due to cytotoxicity at the high drug concentration.

NIH3T3 cells = test: Cell viability of parental NIH3T3 cells; format: cell-based
consensus PDE4D sequence = consensus PDE4D sequence (Homo sapiens, UniProt Q08499); test: PDE4D inhibition (consensus PDE4D sequence); format: biochemical
Chain of consensus PDE4D sequence (Q08499 whole entry): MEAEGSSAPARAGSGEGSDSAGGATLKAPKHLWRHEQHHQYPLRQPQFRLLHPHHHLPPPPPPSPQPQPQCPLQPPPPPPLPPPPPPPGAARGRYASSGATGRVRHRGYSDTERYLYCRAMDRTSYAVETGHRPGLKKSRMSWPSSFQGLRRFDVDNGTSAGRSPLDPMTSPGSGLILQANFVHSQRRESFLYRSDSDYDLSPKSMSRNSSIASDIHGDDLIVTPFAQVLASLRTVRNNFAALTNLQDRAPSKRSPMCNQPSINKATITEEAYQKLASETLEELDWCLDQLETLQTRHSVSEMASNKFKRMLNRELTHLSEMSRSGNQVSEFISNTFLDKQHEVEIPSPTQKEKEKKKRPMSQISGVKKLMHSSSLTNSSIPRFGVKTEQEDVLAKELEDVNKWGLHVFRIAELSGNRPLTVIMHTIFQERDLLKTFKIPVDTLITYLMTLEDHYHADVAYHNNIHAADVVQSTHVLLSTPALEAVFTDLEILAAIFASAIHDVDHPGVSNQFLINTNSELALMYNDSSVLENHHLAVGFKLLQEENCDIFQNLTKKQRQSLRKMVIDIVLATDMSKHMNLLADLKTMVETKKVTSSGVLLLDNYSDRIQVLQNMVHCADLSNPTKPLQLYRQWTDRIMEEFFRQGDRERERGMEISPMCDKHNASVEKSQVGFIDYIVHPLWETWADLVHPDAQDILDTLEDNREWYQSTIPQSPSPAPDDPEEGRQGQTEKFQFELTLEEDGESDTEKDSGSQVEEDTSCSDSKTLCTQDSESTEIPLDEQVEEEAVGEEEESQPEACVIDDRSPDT
Description: First, the contribution of PDE4 was revisited as a potential explanation for the observed mechanistic drift.

## C=C(C)Cn1c(SCC(=O)c2cccs2)nc2sc3c(c2c1=O)CCCC3 [EGM, Eggmanone]
Mouse cardiomyocytes [1]
  Calcium handling: not associated with alterations in calcium handling
Daoy cells
  Apoptosis (TUNEL staining): increased apoptosis
  Cell proliferation (phospho-histone H3 staining): decreased cell proliferation
Mouse cardiomyocytes [2]
  increase in contractility over vehicle control: 50%
Mouse aorta
  Vessel diameter after pre-constriction: little to no contraction or dilation of the vessel; also recorded: had no effect on the vessel
ptch1 expression
  ptch1 expression in response to purmorphamine: significantly inhibited ptch1 expression in response to purmorphamine

## C=C(C)Cn1c(SCC(=O)c2cccs2)nc2sc3c(c2c1=O)CCCC3 [Eggmanone, 3-(2-methylallyl)-2-((2-oxo-2-(thiophen-2-yl)ethyl)thio)-5,6,7,8-tetrahydrobenzo[4,5]thieno[2,3-d]pyrimidine-4(3H)-one]
Panel of 442 kinases
  agonist or antagonist activity: did not exhibit significant agonist or antagonist activity
  significant inhibition: > 10 µM
PDE4 isoforms
  IC50: 0.8 to 3 µM and 0.8 to 3.75 µM
PDE6C
  inhibition at 50 µM: < 10%
PDE7A1
  inhibition at 50 µM: < 10%
PDE8A1
  inhibition at 50 µM: < 10%
PDE11A4
  IC50: > 50 µM
PDE10A2
  inhibition at 50 µM: < 10%
PDE5A1
  inhibition at 50 µM: < 10%
PDE3A
  IC50: > 50 µM
PDE9A1
  inhibition at 50 µM: < 10%
Dengue
  Antiviral effect on Dengue: has antiviral effects
Panel of 158 GPCRs
  agonist or antagonist activity: did not exhibit significant agonist or antagonist activity
  significant inhibition: > 10 µM
PDE4D3-AKAP450
  PDE4D3 localization / physical association with AKAP450: does not disrupt PDE4D3 localization; also recorded: did not disrupt PDE4D3 localization or physical association with AKAP450
ptch1 expression
  ptch1 expression in response to purmorphamine: significantly inhibited ptch1 expression in response to purmorphamine
[3]
  Antiviral effect on BVDV: has antiviral effects
NIH3T3 cells
  Viability of NIH3T3 cells: had no effect on parental NIH3T3 cells

## CCCn1c(SCC(=O)c2cccs2)nc2sc3c(c2c1=O)CCCC3 [Formula 9e]
Consensus PDE4D sequence
  PDE4D inhibition in words: tracked well with EGM1's IC50:EC50 ratio

## C=C(C)Cn1c(SCC(=O)c2ccccc2)nc2sc3c(c2c1=O)CCCC3 [Formula 9g]
Consensus PDE4D sequence
  PDE4D inhibition in words: tracked well with EGM1's IC50:EC50 ratio
